Results reported in patent US8067620B2, “Dispiro 1,2,4-trioxolane antimalarials” (Medicines for Malaria Venture MMV, priority 2005, dated 2011).
Converted amounts (≈) assume the structure as drawn. Like-named read-outs stand apart in the source and are kept apart here.

Experiments:
[1] = system: Embryonic red blood cells (RBCs); test: Rat whole embryo culture (WEC) model, embryotoxicity
Text: Embryonic red blood cells (RBCs) were the primary target leading to anemia and subsequent hypoxia in embryonic tissues.
Longo, M.; Zanoncelli, S.; Manera, D.; Brughera, M.; Colombo, P.; Lansen J.; Mazué, G.; Gomes, M.; Taylor W. R. J.; Olliaro, P. Effects of the Antimalarial Drug Dihydroartemisinin (DHA) on Rat Embryos In Vitro. Repro. Tox. 2006, 21, 83-93.

P. berghei = test: Prophylactic activity against P. berghei in vivo (mice dosed before infection); conditions: for Cures 24 h prior to infection (30 mg/kg) / Activity (%) 24 h prior to infection (30 mg/kg): single 30 mg/kg oral dose 24 h prior to infection; for Cures 24 h prior to infection (30 mg/kg) / Cures 48 h prior to infection (100 mg/kg) / Cures 72 h prior to infection (100 mg/kg) / Cures 96 h prior to infection (100 mg/kg): n=5 mice; for Activity (%) 24 h prior to infection (30 mg/kg) / Activity (%) 48 h prior to infection (100 mg/kg): parasitemia day 3 post-infection; for Cures 48 h prior to infection (100 mg/kg) / Activity (%) 48 h prior to infection (100 mg/kg): single 100 mg/kg oral dose 48 h prior to infection; for Activity (%) 72 h prior to infection (100 mg/kg) / Cures 72 h prior to infection (100 mg/kg): single 100 mg/kg oral dose 72 h prior to infection; for Activity (%) 96 h prior to infection (100 mg/kg) / Cures 96 h prior to infection (100 mg/kg): single 100 mg/kg oral dose 96 h prior to infection
Procedure: All groups (n=5 mice per group) including an untreated control group, were infected at the same time and parasitemia was determined for each animal on day 3 post-infection and compared with the level of parasitemia in control animals.

[2] = Pharmacokinetic studies in rats (oral); format: in vivo, rat; conditions: oral 10 mg/kg; for Oral Bioavailability at 10 mg/kg (%): relative to an IV dose
Procedure: Pharmacokinetic studies in rats: Compounds were administered orally to rats (n=2) at a dose of 10 mg/kg in a suspension formulation containing hydroxypropylmethyl cellulose, Tween 80, benzyl alcohol, and water. […] Oral bioavailability for each compound was calculated relative to an IV dose for each compound in a suitable vehicle.

[3] = Blood stability studies in freshly collected rat blood; format: in vitro ADME; design: unit not given here
Procedure: Blood stability studies: Compounds were incubated at 37° C. in freshly collected rat blood. At selected time points, duplicate aliquots of the whole blood were sampled, centrifuged and the plasma assayed for parent compound by LC-MS.

[4] = system: ANKA strain of P. berghei; test: Single dose in vivo screen in P. berghei-infected NMRI mice; conditions: for Survival (days) 30 mg/kg SSV po / Activity (%) 30 mg/kg SSV po: single 30 mg/kg po dose in SSV one day post-infection; for Activity (%) 30 mg/kg SSV po: percent reduction in parasitemia on day three post-infection; for Cures 30 mg/kg SSV po: single 30 mg/kg po dose in SSV, cure = survival to day 30 post-infection, groups of five mice
Procedure: Activity of 1,2,4-trioxolanes against P. berghei in vivo. In the single dose in vivo screen, NMRI mice infected with the ANKA strain of P. berghei (groups of five mice) were treated one day post-infection with trioxolanes dissolved or suspended in standard suspending vehicle (SSV). The SSV consists of either 0.5% w/v carboxymethyl cellulose, 0.5% v/v benzyl alcohol, 0.4% v/v Tween 80, and 0.9% w/v sodium chloride in water or 0.5% hydroxypropylmethylcellulose 0.4% v/s Tween 80, and 0.5% v/v benzyl alcohol in water. […] Antimalarial activity was measured by percent reduction in parasitemia on day three post-infection and survival times compared to an untreated control group. Survival to day 30 post-infection is considered to be a cure in this model.

[5] = system: chloroquine-sensitive NF54 strain of Plasmodium falciparum; test: Activity against P. falciparum NF54 strain in vitro; format: cell-based
Text: (§1) Activity of 1,2,4-trioxolanes against P. falciparum in vitro.

[6] = system: chloroquine-resistant K1 strain of Plasmodium falciparum; test: Activity against P. falciparum K1 strain in vitro; format: cell-based
Text: as §1

[7] = P. falciparum NF54, in vitro, second value of K1/NF54 cell, read-out: IC50 (ng/ml) NF54
[8] = P. falciparum K1, in vitro, first value of K1/NF54 cell, read-out: IC50 (ng/ml) K1

SMILES	NOAEL for embryonic RBCs [1]	Cures 24 h prior to infection (30 mg/kg) (P. berghei)	Activity (%) 24 h prior to infection (30 mg/kg) (P. berghei)	Cures 48 h prior to infection (100 mg/kg) (P. berghei)	Activity (%) 48 h prior to infection (100 mg/kg) (P. berghei)	Activity (%) 72 h prior to infection (100 mg/kg) (P. berghei)	Cures 72 h prior to infection (100 mg/kg) (P. berghei)	Activity (%) 96 h prior to infection (100 mg/kg) (P. berghei)	Cures 96 h prior to infection (100 mg/kg) (P. berghei)	Oral Bioavailability at 10 mg/kg (%) [2]	Stability in Rat Blood (t1/2) at 37° C. [3]	Survival (days) 30 mg/kg SSV po [4]	Cures 30 mg/kg SSV po [4]	In Vivo Oral t1/2 at 10 mg/kg [2]	further results
CS(=O)(=O)O.c1cc(C2CCC3(CC2)OOC2(O3)C3CC4CC(C3)CC2C4)ccc1OCCN1CCOCC1 (centres unmarked) [OZ439]	5 µg/mL	5/5	99.8%	5/5	99.6%	99.6%	5/5	99.5%	5/5	94%	–	–	–	–	–
CC(C)(CN)Oc1ccc(C2CCC3(CC2)OOC2(O3)C3CC4CC(C3)CC2C4)cc1.CS(=O)(=O)O (centres unmarked) [OZ453]	–	0/5	99.9%	5/5	99.7%	–	–	–	–	–	6.1	–	–	–	–
CS(=O)(=O)O.NC1CCC(Oc2ccc(C3CCC4(CC3)OOC3(O4)C4CC5CC(C4)CC3C5)cc2)CC1 (centres unmarked) [OZ537]	–	5/5	>99.9%	5/5	>99.9%	–	–	–	–	–	>17	–	–	–	In Vivo Oral t1/2 at 10 mg/kg ([2]; 10 mg/kg): 11.8 h; Oral Bioavailability at 10 mg/kg (%) ([2]; 10 mg/kg): 29%
CO[C@H]1O[C@@H]2O[C@@]3(C)CC[C@H]4[C@H](C)CC[C@@H]([C@H]1C)[C@@]24OO3 [AM, artemether, reference compound]	–	–	–	–	–	–	–	–	–	–	–	9.0 days	0/5	–	Activity (%) 30 mg/kg SSV po [4]: 99.7%; IC50 [5, 7]: 1.2 ng/mL (≈ 0.00402 µM); IC50 [6, 8]: 0.74 ng/mL (≈ 0.00248 µM)
NC[C@H]1CC[C@]2(CC1)OOC1(O2)C2CC3CC(C2)CC1C3 (some centres unmarked) [OZ209, reference compound]	–	–	–	–	–	–	–	–	–	12%	0.8	–	–	1.2 h	–
C[C@H]1[C@@H](O)O[C@@H]2O[C@@]3(C)CC[C@H]4[C@H](C)CC[C@@H]1[C@@]24OO3 [dihydroartemisinin]	0.01 µg/mL	–	–	–	–	–	–	–	–	–	–	–	–	–	–
CS(=O)(=O)O.c1cc([C@H]2CC[C@]3(CC2)OOC2(O3)C3CC4CC(C3)CC2C4)ccc1OCCCN1CCOCC1 (some centres unmarked) [OZ461]	–	5/5	99.9%	5/5	99.7%	99.6%	5/5	99.4%	4/5	71%	–	–	–	–	–
CS(=O)(=O)N1CCN(CCCOc2ccc([C@H]3CC[C@]4(CC3)OOC3(O4)C4CC5CC(C4)CC3C5)cc2)CC1.Cc1ccc(S(=O)(=O)O)cc1 (some centres unmarked) [OZ482]	–	3/5	>99.9%	5/5	>99.9%	99.6%	4/5	99.6%	3/5	100%	>17	–	–	9.6 h	–
CS(=O)(=O)O.NC1CCC(Oc2ccc(C3CCC4(CC3)OOC3(O4)C4CC5CC(C4)CC3C5)cc2)CC1 (centres unmarked) [OZ493]	1 µg/mL	3/5	>99.9%	5/5	99%	99.9%	5/5	99.5%	3/5	–	>17	–	–	–	In Vivo Oral t1/2 at 10 mg/kg ([2]; 10 mg/kg): 7.7 h; Oral Bioavailability at 10 mg/kg (%) ([2]; 10 mg/kg): 51%
CCN(CC)CCCC(C)Nc1ccnc2cc(Cl)ccc12 (centres unmarked) [CQ, chloroquine, reference compound]	–	0/5	–	0/5	–	–	–	–	–	–	–	9.6 days	0/5	–	IC50 ([5]; K1 / NF54, read-out: IC50 (ng/ml) NF54): 5.1 ng/mL (≈ 0.0159 µM); IC50 ([6]; K1 / NF54, read-out: IC50 (ng/ml) K1): 62 ng/mL (≈ 0.194 µM)
CC(C)(N)CNC(=O)C[C@H]1CC[C@]2(CC1)OO[C@]1(O2)C2CC3CC(C2)CC1C3 [OZ277, reference compound]	0.2 µg/mL	0/5	13%	0/5	0%	–	–	–	–	19%	0.8	8.0 days	0/5	1.6 h	Activity (%) 30 mg/kg SSV po [4]: 99.7%
NCCOc1ccc([C@H]2CC[C@]3(CC2)OO[C@]2(O3)C3CC4CC(C3)CC2C4)cc1 [OZ323, reference compound]	–	0/5	99.7%	5/5	99.5%	>99.9%	1/5	90%	0/5	100%	7.7	–	–	5.2 h	–
C[C@@H]1CC[C@H]2[C@@H](C)C(=O)O[C@@H]3O[C@@]4(C)CC[C@@H]1[C@]32OO4 [artemisinin]	0.1 µg/mL	–	–	–	–	–	–	–	–	–	–	–	–	–	–
CS(=O)(=O)O.c1cc([C@H]2CC[C@]3(CC2)OOC2(O3)C3CC4CC(C3)CC2C4)ccc1OC1CCNCC1 (some centres unmarked) [OZ429]	–	2/5	99.8%	5/5	99.8%	–	–	–	–	73%	5.5	27.8 days	4/5	5.3 h	Activity (%) 30 mg/kg SSV po [4]: 99.97%
OC(c1cc(C(F)(F)F)nc2c(C(F)(F)F)cccc12)C1CCCCN1 (centres unmarked) [MQ, mefloquine, reference compound]	–	3/5	>99.9%	3/5	99.9%	>99.9%	0/5	–	–	–	–	21.8 days	0/5	–	Activity (%) 30 mg/kg SSV po [4]: 99.6%; IC50 [5, 7]: 5.8 ng/mL (≈ 0.0153 µM); IC50 [6, 8]: 3 ng/mL (≈ 0.00793 µM)
